Assay results from PubChem BioAssay (NCI).
Values joined by “and” are separate entries in the source; they are usually repeats but may differ in a detail not shown here. Equal values may be shown once.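 1) Cells in 96-well plates. 2) Compound, 48 h, 5 concentrations. 3) Linear interpolation between surrounding doses. 4) Unreached endpoint = highest concentration. GI50: concentration for 50% inhibition of growth. TGI marks complete inhibition of growth.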

Tests used:
Assay in all cases: growth of human tumour cells (NCI), 48 h
OVCAR-4 ovarian = system: OVCAR-4 ovarian
RXF 393 renal = system: RXF 393 renal
IGROV1 ovarian = system: IGROV1 ovarian
KM12 colon = system: KM12 colon
DU-145 prostate = system: DU-145 prostate
OVCAR-8 ovarian = system: OVCAR-8 ovarian
COLO 205 colon = system: COLO 205 colon
SK-MEL-28 melanoma = system: SK-MEL-28 melanoma
SK-MEL-5 melanoma = system: SK-MEL-5 melanoma
NCI-H226 lung = system: NCI-H226 lung

Compound | GI50 (OVCAR-4 ovarian) [µM] | TGI (OVCAR-4 ovarian) | GI50 (RXF 393 renal) | TGI (RXF 393 renal) | GI50 (IGROV1 ovarian) | TGI (IGROV1 ovarian) | GI50 (KM12 colon) | TGI (KM12 colon) | GI50 (DU-145 prostate) | TGI (DU-145 prostate) | GI50 (OVCAR-8 ovarian) | TGI (OVCAR-8 ovarian) | GI50 (COLO 205 colon) | TGI (COLO 205 colon) | GI50 (SK-MEL-28 melanoma) | TGI (SK-MEL-28 melanoma) | GI50 (SK-MEL-5 melanoma) | TGI (SK-MEL-5 melanoma) | GI50 (NCI-H226 lung) | TGI (NCI-H226 lung)
CN1CCN(c2ccc(Nc3nc(N)c(C(=O)c4ccc5c(c4)OCCO5)s3)cc2)CC1 | 4.02 | 10.5 µM | 1.71 µM | 5.71 µM | 2.27 µM | 9.27 µM | 4.06 µM | 16.1 µM | 4.34 µM | 16.5 µM | 5.94 µM | 16.7 µM | 2.27 µM | 7.35 µM | 4.6 µM | 10.5 µM | 3.52 µM | 8.88 µM | 2.71 µM | 11.8 µM
Cc1cc2cn3c4ccc(O)cc4[nH]c(=O)c3c2cc1C | 0.0675 | 1.81 µM | 0.0258 µM | 1.43 µM | – | – | 0.0374 µM | 0.553 µM | 0.0285 µM | 0.315 µM | 0.0359 µM | 1.31 µM | 0.174 µM | 0.927 µM | 0.0346 µM | 1.74 µM | 0.0272 µM | 0.231 µM | 0.0399 µM | 0.859 µM
CCN(CC)c1ccc2c(c1)Oc1nc(N)c(C#N)c(N)c1C2Sc1ccc(OC)cc1 (configuration not stated) | 1.57 | 3.02 µM | 1.88 µM | 3.35 µM | 1.9 µM | 3.9 µM | 1.74 µM | 3.73 µM | 1.82 µM | 3.25 µM | 1.87 µM | 3.76 µM | 1.88 µM | 3.65 µM | 1.85 µM | 3.37 µM | 1.54 µM | 2.9 µM | 1.82 µM | 3.55 µM
COC(=O)c1c(O)c([N+](=O)[O-])cc2c1c1c(n2Cc2ccccc2)C(=O)c2ccccc2C1=O | 57.3 | > 100 µM | 12.3 µM | 61.9 µM | 35.1 µM | > 100 µM | 21.5 µM | 78.5 µM | 14.3 µM | 27.6 µM | 14.1 µM | 53.1 µM | 2.18 µM | 6.82 µM | 34.9 µM | > 100 µM | 3.63 µM | 14.7 µM | 26.4 µM | 62.9 µM
Nc1ncnc2c1c(-c1cccc(OCc3ccccc3)c1)cn2C1CC(CN2CCC2)C1 (configuration not stated) | 3.49 | 15.3 µM and > 10 µM | 1.71 µM and 2 µM | 4.27 µM and 7.26 µM | 3.32 µM and 4.84 µM | 12.2 µM and > 10 µM | 2.72 µM and 3.07 µM | 8.97 µM and > 10 µM | 4.61 µM and 7.63 µM | 17.7 µM and > 10 µM | 5.92 µM and 8.46 µM | 20 µM and > 10 µM | 0.262 µM and 0.245 µM | 1.55 µM and 1.29 µM | 1.33 µM and 1.63 µM | 2.78 µM and 3.52 µM | 1.31 µM and 1.42 µM | 2.67 µM and 2.8 µM | 2.03 µM and 2.71 µM | 16 µM and > 10 µM
Cc1cc(O)c(C2=NN(c3ccc(S(N)(=O)=O)cc3)C(c3ccc(N(C)C)cc3)C2)c(C)c1Cl (configuration not stated) | 13.3 | 27.6 µM | 24.5 µM | 59.1 µM | 18.3 µM | 59 µM | 13.3 µM | 28.3 µM | 19.2 µM | 38.4 µM | 27.3 µM | > 100 µM | 12.3 µM | 25.4 µM | 19.4 µM | 35.6 µM | 14.5 µM | 27.8 µM | 13.4 µM | 29.4 µM
C=C1c2[nH]c3ccccc3c2C2C(CC)C1CCN2C (configuration not stated) | – | > 100 µM | – | > 100 µM | – | > 100 µM | – | > 100 µM | – | > 100 µM | – | > 100 µM | – | 58.9 µM | – | 77.2 µM | – | > 100 µM | – | > 100 µM
CN1C(=O)[C@@H](NC(=O)[C@H](CCC(F)(F)F)[C@H](CCC(F)(F)F)C(N)=O)N=C(c2ccccc2)c2ccccc21 | 86.8 | > 100 µM | 24.6 µM | > 100 µM | > 100 µM | > 100 µM | > 100 µM | > 100 µM | > 100 µM | > 100 µM | > 100 µM | > 100 µM | 87.5 µM | > 100 µM | 59.7 µM | > 100 µM | 36.1 µM | > 100 µM | > 100 µM | > 100 µM
COc1ccc(-c2nc(C(=O)c3ccccc3)n(CC(=O)c3ccccc3)c2-c2ccc(OC)cc2)cc1 | > 100 | > 100 µM | > 100 µM | > 100 µM | > 100 µM | > 100 µM | > 100 µM | > 100 µM | > 100 µM | > 100 µM | > 100 µM | > 100 µM | > 100 µM | > 100 µM | > 100 µM | > 100 µM | > 100 µM | > 100 µM | > 100 µM | > 100 µM
CCN1C2=NCCN2S(=O)(=O)c2ccccc21 | – | > 100 µM | – | > 100 µM | – | > 100 µM | – | > 100 µM | – | > 100 µM | – | > 100 µM | – | > 100 µM | – | > 100 µM | – | > 100 µM | – | > 100 µM
Cc1nc(CN2CCCCC2)c(O)c(=O)[nH]1 | – | > 100 µM | – | > 100 µM | – | > 100 µM | – | > 100 µM | – | > 100 µM | – | > 100 µM | – | > 100 µM | – | > 100 µM | – | > 100 µM | – | > 100 µM
O=C(O)CCC/C=C\C[C@H]1C=CC(=O)/C1=C/C[C@@H](O)CCc1cccc(C(F)(F)F)c1 | 3.94 | 16.8 µM | 2 µM | 3.61 µM | 3.41 µM | 13.6 µM | 1.89 µM | 4.62 µM | 2.43 µM | 10.3 µM | 2.86 µM | 11.6 µM | 2.26 µM | 5.49 µM | 1.52 µM | 4.4 µM | 1.71 µM | 3.14 µM | – | –
Nc1nc2cc3ccc(C4CC(O)C(CO)O4)cc3cc2c(=O)[nH]1 (configuration not stated) | > 100 | > 100 µM | > 100 µM | > 100 µM | > 100 µM | > 100 µM | – | – | > 100 µM | > 100 µM | > 100 µM | > 100 µM | > 100 µM | > 100 µM | > 100 µM | > 100 µM | > 100 µM | > 100 µM | > 100 µM | > 100 µM
COc1cc2c3c(n(CCCNCCCNCCCNCCCN)c(=O)c2cc1OC)-c1cc2c(cc1C3=O)OCO2 | 4.34 | 58 µM | 1.7 µM | 4.46 µM | 3.72 µM | > 100 µM | 1.73 µM | 4.03 µM | 1.42 µM | 4.19 µM | 2.19 µM | 10.8 µM | 1.49 µM | > 100 µM | 2.29 µM | 25.2 µM | – | – | 2.92 µM | 7.26 µM
